{"source": "patent US20230241155A1", "about": "“METHODS AND MEANS FOR MODIFYING HEMODYNAMICS IN INFECTIONS” (Biotempt B.V., priority 2020, published 2023)", "key": {"[1]": {"test": "Adverse events (AEs) in the EASI-study (phase II, CABG patients)", "assay_type": "in vivo, human", "procedure": "A prospective, randomized, double-blind, placebo-controlled study was performed in which 180 elective patients undergoing on-pump coronary artery bypass grafting were enrolled. Patients were randomized in a 1:1 ratio and received either EA-230, 90 mg/kg/hour, or a placebo. These were infused at the start of the surgical procedure until the end of the use of the cardiopulmonary bypass. The main focus in this first-in-patient study was on safety and tolerability of EA-230. The primary efficacy endpoint was the modulation of the inflammatory response by EA-230. A key secondary endpoint was the effect of EA-230 on renal function.\nThe present study was a single-center, prospective, double-blind, placebo-controlled, randomized, single-dose phase II study. It has an adaptive design to evaluate the safety and immunomodulatory effects of EA-230 in patients undergoing for coronary artery bypass grafting (CABG). 180 eligible patients were included and were randomized to receive either active or placebo treatment in a 1:1 ratio. This was a first-in-patient safety and tolerability study, of which the primary efficacy objective was to assess the immunomodulatory effects of EA-230. The key-secondary efficacy endpoint was the effect of EA-230 on renal function. This study was described in accordance with the Standard Protocol Items: Recommendations for Interventional Trial (SPIRIT) guidelines, and registered at clinicaltrials.gov under number NCT03145220.\nIntravenous infusion of EA-230, 90 mg/kg/hour, or placebo, was initiated at the moment of first surgical incision using an automated infusion pump. Infusion rate was set at 250 mL/hour, and infusion was continued until cessation of the CPB, or after 4 hours of continuous infusion, whichever comes first.\nAll AEs were judged by the investigators with regard to severity (“mild, moderate, or severe”) according to Common Terminology Criteria for Adverse Events guidelines 4.030 and their perceived relation to the study drug (“definitely, probably, possibly, or unrelated/unlikely to be related”). SAEs or SUSARs include death, life-threatening disease, persistent and/or significant disability and/or incapacity, and hospitalization and/or prolongation of inpatient hospitalization."}, "[2]": {"test": "Solubility / aggregation screen of AQGV peptide salts", "settings": "for aggregation in aqueous solution: in relation to peptide-acetate aggregation", "source_text": "FIG. 7: Overview of solubility experiments with results in Table 1."}}, "note": "Entries after “also recorded” stand apart in the source; their conditions may differ. Where two headings read alike, the source gives them in different places. Peptide text beside a SMILES is read from it."}
{"compound": "CC(C)[C@H](NC(=O)CNC(=O)[C@H](CCC(N)=O)NC(=O)[C@H](C)N)C(=O)O", "note": "[EA-230, AQGV] (H-AQGV-OH)", "values": [{"measurement": "AE of mild intensity, % of patients", "setting": "[1]; EA-230 group N = 91", "value": "(83.5) %"}, {"measurement": "AE of mild intensity, e = Number of events", "setting": "[1]; EA-230 group N = 91", "value": 188}, {"measurement": "AE of mild intensity, n = Number of patients experiencing the event", "setting": "[1]; EA-230 group N = 91", "value": 76}, {"measurement": "AE of moderate intensity, % of patients", "setting": "[1]; EA-230 group N = 91", "value": "(24.2) %"}, {"measurement": "AE of moderate intensity, e = Number of events", "setting": "[1]; EA-230 group N = 91", "value": 23}, {"measurement": "AE of moderate intensity, n = Number of patients experiencing the event", "setting": "[1]; EA-230 group N = 91", "value": 22}, {"measurement": "AE of severe intensity, % of patients", "setting": "[1]; EA-230 group N = 91", "value": "(5.5) %"}, {"measurement": "AE of severe intensity, e = Number of events", "setting": "[1]; EA-230 group N = 91", "value": 6}, {"measurement": "AE of severe intensity, n = Number of patients experiencing the event", "setting": "[1]; EA-230 group N = 91", "value": 5}, {"measurement": "Anemia, % of patients", "setting": "[1]; EA-230 group N = 91", "value": "(5.5) %"}, {"measurement": "Anemia, e = Number of events", "setting": "[1]; EA-230 group N = 91", "value": 5}, {"measurement": "Anemia, n = Number of patients experiencing the event", "setting": "[1]; EA-230 group N = 91", "value": 5}, {"measurement": "Any AE, % of patients", "setting": "[1]; EA-230 group N = 91", "value": "(85.7) %"}, {"measurement": "Any AE, n = Number of patients experiencing the event", "setting": "[1]; EA-230 group N = 91", "value": 78}, {"measurement": "Any SAE, % of patients", "setting": "[1]; EA-230 group N = 91", "value": "(13.2) %"}, {"measurement": "Any SAE, e = Number of events", "setting": "[1]; EA-230 group N = 91", "value": 23}, {"measurement": "Any SAE, n = Number of patients experiencing the event", "setting": "[1]; EA-230 group N = 91", "value": 12}, {"measurement": "Any SUSAR, % of patients", "setting": "[1]; EA-230 group N = 91", "value": "(0) %"}, {"measurement": "Any SUSAR, e = Number of events", "setting": "[1]; EA-230 group N = 91", "value": 0}, {"measurement": "Any SUSAR, n = Number of patients experiencing the event", "setting": "[1]; EA-230 group N = 91", "value": 0}, {"measurement": "Blood and lymphatic system disorders Overall, % of patients", "setting": "[1]; EA-230 group N = 91", "value": "(5.5) %"}, {"measurement": "Blood and lymphatic system disorders Overall, e = Number of events", "setting": "[1]; EA-230 group N = 91", "value": 6}, {"measurement": "Blood and lymphatic system disorders Overall, n = Number of patients experiencing the event", "setting": "[1]; EA-230 group N = 91", "value": 5}, {"measurement": "Delirium, % of patients", "setting": "[1]; EA-230 group N = 91", "value": "(5.5) %"}, {"measurement": "Delirium, e = Number of events", "setting": "[1]; EA-230 group N = 91", "value": 5}, {"measurement": "Delirium, n = Number of patients experiencing the event", "setting": "[1]; EA-230 group N = 91", "value": 5}, {"measurement": "Fluid retention, % of patients", "setting": "[1]; EA-230 group N = 91", "value": "(2.2) %"}, {"measurement": "Fluid retention, e = Number of events", "setting": "[1]; EA-230 group N = 91", "value": 2}, {"measurement": "Fluid retention, n = Number of patients experiencing the event", "setting": "[1]; EA-230 group N = 91", "value": 2}, {"measurement": "Gastrointestinal disorders Overall, % of patients", "setting": "[1]; EA-230 group N = 91", "value": "(23.1) %"}, {"measurement": "Gastrointestinal disorders Overall, e = Number of events", "setting": "[1]; EA-230 group N = 91", "value": 27}, {"measurement": "Gastrointestinal disorders Overall, n = Number of patients experiencing the event", "setting": "[1]; EA-230 group N = 91", "value": 21}, {"measurement": "Hemorrhagic diathesis, % of patients", "setting": "[1]; EA-230 group N = 91", "value": "(1.1) %"}, {"measurement": "Hemorrhagic diathesis, e = Number of events", "setting": "[1]; EA-230 group N = 91", "value": 1}, {"measurement": "Hemorrhagic diathesis, n = Number of patients experiencing the event", "setting": "[1]; EA-230 group N = 91", "value": 1}, {"measurement": "Infections and infestations Overall, % of patients", "setting": "[1]; EA-230 group N = 91", "value": "(14.3) %"}, {"measurement": "Infections and infestations Overall, e = Number of events", "setting": "[1]; EA-230 group N = 91", "value": 15}, {"measurement": "Infections and infestations Overall, n = Number of patients experiencing the event", "setting": "[1]; EA-230 group N = 91", "value": 13}, {"measurement": "Metabolism and nutrition disorders Overall, % of patients", "setting": "[1]; EA-230 group N = 91", "value": "(11) %"}, {"measurement": "Metabolism and nutrition disorders Overall, e = Number of events", "setting": "[1]; EA-230 group N = 91", "value": 10}, {"measurement": "Metabolism and nutrition disorders Overall, n = Number of patients experiencing the event", "setting": "[1]; EA-230 group N = 91", "value": 10}, {"measurement": "Nausea, % of patients", "setting": "[1]; EA-230 group N = 91", "value": "(16.5) %"}, {"measurement": "Nausea, e = Number of events", "setting": "[1]; EA-230 group N = 91", "value": 15}, {"measurement": "Nausea, n = Number of patients experiencing the event", "setting": "[1]; EA-230 group N = 91", "value": 15}, {"measurement": "Psychiatric disorders Overall, % of patients", "setting": "[1]; EA-230 group N = 91", "value": "(9.9) %"}, {"measurement": "Psychiatric disorders Overall, e = Number of events", "setting": "[1]; EA-230 group N = 91", "value": 9}, {"measurement": "Psychiatric disorders Overall, n = Number of patients experiencing the event", "setting": "[1]; EA-230 group N = 91", "value": 9}, {"measurement": "Renal and urinary disorders Overall, % of patients", "setting": "[1]; EA-230 group N = 91", "value": "(4.4) %"}, {"measurement": "Renal and urinary disorders Overall, e = Number of events", "setting": "[1]; EA-230 group N = 91", "value": 4}, {"measurement": "Renal and urinary disorders Overall, n = Number of patients experiencing the event", "setting": "[1]; EA-230 group N = 91", "value": 4}, {"measurement": "safety and tolerability", "setting": "[1]; clinical trials / throughout surgery", "value": "safe and well tolerated; also recorded: found to be safe"}]}
{"compound": "Nc1ncnc2c1ncn2[C@@H]1O[C@H](CO)[C@@H](O)[C@H]1O", "note": "[adenosine]", "values": [{"measurement": "solubility (aggregation point)", "setting": "[2]", "value": "did not provide solubility"}, {"measurement": "aggregation in aqueous solution", "setting": "[2]", "value": "aggravated aggregation"}]}
{"compound": "AQGV-citrate", "values": [{"measurement": "behaviour of highly concentrated solution", "setting": "[2]", "value": "does not crystallize or aggregate but tend to form a highly viscous solution"}, {"measurement": "solubility (aggregation point)", "setting": "[2]", "value": "Higher solubility"}, {"measurement": "aggregation in aqueous solution", "setting": "[2]", "value": "(strongly) reduced aggregation"}]}
{"compound": "Nc1ncnc2c1ncn2[C@@H]1O[C@H](COP(=O)(O)O)[C@@H](O)[C@H]1O", "note": "[adenosine-monophosphate]", "values": [{"measurement": "solubility (aggregation point)", "setting": "[2]", "value": "did not provide solubility"}, {"measurement": "aggregation in aqueous solution", "setting": "[2]", "value": "aggravated aggregation"}]}
{"compound": "O=C(O)/C=C\\C(=O)O", "note": "[maleic acid]", "values": [{"measurement": "aggregation in aqueous solution", "setting": "[2]", "value": "aggravated aggregation"}, {"measurement": "solubility (aggregation point)", "setting": "[2]; solubility in 0.9% NaCl, compared to AQGV-Ac", "value": "lower solubility"}]}
